From patent US5451518A, “Purified human ceramide-activated protein kinase” (Sloan-Kettering Institute for Cancer Research, priority 1992, dated 1995)
“Also recorded” adds a separate entry of the source. Like-named read-outs stand apart in the source and are kept apart here.

Legend:
[1] = tested on: HL-60 cells; details: cited from earlier work
[2] = tested on: phosphatidyl-choline, lysophosphatidylcholine, sphingosylphosphorylcholine, 1,2-diacylglycerol; experiment: Other choline-containing lipids and diacylglycerol in HL-60 cell-free system; type: biochemical, human; details: TNF-α
[3] = tested on: ceramide-activated protein kinase; experiment: Ceramide-activated protein kinase activity in HL-60 cell-free system; type: biochemical, human
Experimental: HL-60 cells were incubated in serum-free medium and homogenized (as in FIGS. 9A and 9B). […] ATP (750 μM, 4000 dpm pmol^-1), and 75 μl of reaction buffer (40). The reaction was terminated by adding 30 μl of 0.5M ATP in 90% formic acid. Phosphorylated peptide was first run on a C18 Sep-Pak cartridge, then resolved by C18 reverse-phase HPLC (Waters, Milford, Mass.), with a linear gradient of acetonitrile. The peptide eluted at 30% acetonitrile, as determined by monitoring Cerenkov radiation in 1-ml fractions. Background activity was subtracted from each point. (FIG. 10A) Kinetics of TNF-α (30 nM)-stimulated EGFR peptide phosphorylation. Values (mean) represent data from four experiments. (FIG. 10B) Concentration dependence of EGFR peptide phosphorylation at 5 minutes of stimulation with TNF-α (0.01 to 30 nM). Values (mean) represent data derived from duplicate points in two experiments. The SEM of the values in (FIG. 10A) was 18% and the mean range of values in (FIG. 10B) was 3%.
Peptide phosphorylation was measured as in FIGS. 10A nad 10B. Control value represents peptide phosphorylation in the absence of phospholipases or TNF-α. Values (mean ± SEM) represent data derived from duplicate samples in three experiments. *P<0.001 compared to control.
(§1) The binding of TNF-α to its receptor is detectable within 2 minutes and maximal by 5 to 10 minutes at 4° C. in membranes derived from HL-60 cells (41). Therefore, supernates from HL-60 cells, collected after a low-speed centrifugation to remove nuclei, were first incubated with TNF-α for 5 minutes at 4° C. to allow the formation of TNF-receptor complexes. Thereafter, reactions were initiated by warming supernates to 22° C. in a reaction mixture containing adenosine triphosphate (ATP) and Mg^2+ at pH 7.4.
The effect of TNF-α on ceramide-activated protein kinase activity was assessed. […] For studies assessing the effect of TNFα in broken cell preparations, nuclei-free supernates were incubated under conditions sufficient for stimulation of neutral sphingomyelinase in a reaction mixture that also contained EGFR peptide and γ-^32 P-labeled ATP. Phosphorylated peptide was resolved by high-performance liquid chromatograph (HPLC) and quantified by Cerenkov counting (40). Kinase activity was calculated from the specific activity of [γ-^32 P] ATP and incorporation of ^32 P into EGFR peptide. Background activity was subtracted from each point. […] If the initial incubation with TNF-α at 4° C. was omitted and TNF was added directly to the reaction mixture at 22° C., the reaction was delayed. […] TNF-α enhanced kinase activity in a concentration-dependent manner at 5 minutes (FIG. 10B). […] This is similar to the ED50 of 200 pM for stimulation of ceramide-activated protein kinase by TNF-α in intact cells (40). TNF-α enhanced kinase activity in a total of 20 separate studies.
Control activity reflects several TNF-α-independent protein kinases that are known to phosphorylate EGFR peptide on Thr^669.

[4] = tested on: ceramide-activated protein kinase; details: cited from earlier work
[5] = tested on: HL-60 cells; details: cited from earlier work; remark: listed apart in the source
[6] = tested on: ceramide (HL-60 nuclei-free supernate); experiment: Ceramide content in HL-60 cell-free system; type: biochemical, human
Experimental: (§2) HL-60 cells were grown in RPMI 1640 medium supplemented with 10% bovine calf serum and amino acids (4). To measure sphingomyelin, cells were resuspended (1×10^6 ml^-1), labeled for 48 hours in medium with [^3 H]choline (1 μCi ml^-1) (57), in serum-free medium containing bovine insulin (5 μg ml^-1) and human transferrin (5 μg ml^-1). After 3 hours, cells were resuspended (150×10^6 ml^-1) in homogenization buffer (50 mM NaF, 5 mM EGTA, and 25 mM Hepes, pH 7.4), disrupted at 4° C. with 150 strokes of a tight-fitting Dounce homogenizer (Fisher Scientific, Pittsburgh, Pa.), and centrifuged for 5 minutes (500 g). The nuclei-free supernate was first incubated for 5 minutes at 4° C. with 30 nM human TNF-α (Genentech, South San Francisco, Calif.) or diluent ( 50 mMHepes, pH 7.4). At time zero, 15 μl of supernate (112 μg per incubation) were added to a reaction mixture containing 30 μl of 25 mM Hepes, pH 7.4, 30 μl of 750 μM ATP, and 75 μl of reaction buffer (50 mM Hepes, pH 7.4 and 20 mM MgCl2) at 22° C. The reaction was terminated with CHCl3 :CH3 OH:HCl (100:100:1, v/v/v) (3, 4, 13) and 150 μl of balanced salt solution (135 mM NaCl, 4.5 mM KCl, 1.5 mM CaCl2, 0.5 mM MgCl2, 5.6 mM glucose, and 10 mM Hepes, pH 7.2) containing 20 mM EDTA. Lipids in the organic phase extract were subjected to alkaline methanolysis to remove glycerophospholipids (4). Sphingomyelin recovery in the nuclei-free supernate was 93% of that in intact cells. A measure of 10^6 cell equivalents of supernate contained 50 μg of protein. Sphingomyelin was resolved by thin-layer chromatograhy (TLC) with CHCl3 :CH3 OH:CH3 COOH:H2 O (25:15:4:1.5 ) as solvent, identified by iodine vapor staining and quantified by liquid scintillation spectrometry (1, 8, 56). Ceramide was quantified with the diacyglycerol kinase reaction (4, 57). Values (mean) are derived from triplicate determinations from one experiment representative of three similar studies for sphingomyelin and four similar studies for ceramide.
as §1
These conditions were adopted to allow for activation of neutral sphingomyelinase (1, 42). […] Under the same conditions, ceramide increased quantitatively from 1.8±0.3 to 4.0±0.5 nmol mg^-1 (FIG. 9B). […]

[7] = tested on: ceramide-activated protein kinase
[8] = tested on: sphingomyelin (HL-60 nuclei-free supernate); experiment: Sphingomyelin content in HL-60 cell-free system; type: biochemical, human
Experimental: as §2, §1
These conditions were adopted to allow for activation of neutral sphingomyelinase (1, 42). Under these conditions, TNF-α induced a time- and concentration-dependent reduction in sphingomyelin content (FIG. 9A). the effect of TNF-α was evident at 1 minute and maximal by 7.5 minutes. Sphingomyelin concentrations decreased 27% from a control concentration of 10.4±0.5 (mean ± SEM) to 7.6±0.2 nmol per milligram (nmol mg^-1) of supernate protein (P<0.001). […] Concentrations of TNF-α of 300 pM were ineffective, with a maximal effect at 3 nMTNF-α [effective dose (ED50)≈500 pM]. Under the same conditions, ceramide increased quantitatively from 1.8±0.3 to 4.0±0.5 nmol mg^-1 (FIG. 9B). This effect was detectable at 1 minute (P<0.001) and maximal by 7.5 minutes. Thus, 2.8 nmol of sphingomyelin per milligram of supernate protein were lost for each 2.2 nmol of ceramide per milligram of supernate protein that was generated. […] Other choline-containing lipids, including phosphatidyl-choline, lysophosphatidylcholine, sphingosylphosphorylcholine(1), and 1,2-diacylglycerol were not affected by TNF-α.

Substance: TNF-α
- monocytic differentiation [1]: induce monocytic differentiation
- effect on phosphatidyl-choline, lysophosphatidylcholine, sphingosylphosphorylcholine and 1,2-diacylglycerol [2]: not affected
- delay before enhancement of kinase activity ([3]; TNF added directly at 22° C., no 4° C. incubation): 2 min
- duration of stimulation of kinase activity ([3]; TNF-α 30 nM): at least 10 minutes
- time at which stimulation of kinase activity was evident ([3]; TNF-α 30 nM): evident by i minute
- effect on kinase activity (in words) ([3]; TNF-α 30 nM, GTP, GTP-γ-S 0.25 to 200 μM, SMase 1×10^-3 U ml^-1, 5 minutes, phospholipases 40- to 400-fold higher): enhanced kinase activity (P<0.001)
- concentration for maximal effect ([3]; TNF-α, 5 minutes): 3 nM
- effective concentration ([3]; TNF-α, 5 minutes): 10 pM
- ED50 for kinase activity ([3]; TNF-α, 5 minutes, cell-free): ≈ 300 pM
- effect on kinase activity (in words) ([4]; intact HL-60 cells): rapidly increased; also recorded: similarly enhanced kinase activity in intact cells
- ED50 for stimulation of ceramide-activated protein kinase ([4]; intact cells): 0.2 nM
- maximally effective concentration for generation of ceramide ([5]; also for monocyte differentiation): 30 nM
- sphingomyelin degradation to ceramide / ceramide level (in words) [5]: increase cellular levels of ceramide within minutes; also recorded: activates a neutral sphingomyelinase to generate ceramide
- sphingomyelin degradation to ceramide / ceramide level (in words) ([5]; listed as Tumor necrosis factor (TNF) α): stimulate sphingomyelin degradation to ceramide
- ceramide generated ([6]; TNF-α): 2.2 nmol per milligram of supernat
- time to maximal ceramide increase ([6]; TNF-α): ≤ 7.5 min
- time at which ceramide increase was detectable ([6]; TNF-α, P<0.001): 1 min
- ceramide concentration after TNF-α ([6]; from 1.8±0.3): 4.0 ± 0.5 nmol/mg
- increase in kinase activity ([7]; TNF-α 3 pM, 60 minutes): 1.1 -fold of control
- increase in kinase activity ([7]; TNF-α 30 nM, 5 minutes): 1.5 -fold of control
- maximal effect on kinase activity ([7]; TNF-α 30 nM, 60 minutes): 1.8 -fold of control
- increase in kinase activity ([7]; TNF-α 30 nM, 2 hours): 2.2 -fold of control
- increase in kinase activity ([7]; TNF-α 30 nM, 2 hours, listed as TNF): 2 -fold of control
- ED50 for kinase activity ([7]; TNF-α, 60 minutes, intact cells): ≈ 200 pM
- concentration for maximal effect on sphingomyelin ([8]; TNF-α): 3 nM
- effective dose (ED50), sphingomyelin reduction ([8]; TNF-α): ≈ 500 pM
- sphingomyelin lost ([8]; TNF-α): 2.8 nmol per milligram of supernat
- time at which sphingomyelin reduction was evident ([8]; TNF-α): 1 min
- time to maximal sphingomyelin reduction ([8]; TNF-α): ≤ 7.5 min
- decrease in sphingomyelin concentration ([8]; TNF-α, P<0.001): 27%
- sphingomyelin concentration after TNF-α ([8]; mean ± SEM, control 10.4±0.5, P<0.001): 7.6±0.2 nmol per milligram (nmol mg^-1) of supernate protein
